From US20110092488A1, “Quninoline Methanol Compounds for the Treatment and Prevention of Parasitic Infections” (priority 2005, published 2011)
Where two headings read alike, the source gives them in different places.

How the values were obtained:
yeast = conditions: Ison and Davis, 1969; cited from earlier work
[1] = by 'injection'; Ison and Davis, 1969; cited from earlier work
[2] = tested on: Balb/c 3T3 mouse fibroblast cells; assay: 3T3 neutral red uptake (NRU) phototoxicity test; format: cell-based
Description: A pharmacophore for phototoxicity was developed to be used as an in silico screening tool to determine the minimum phototoxic concentration for a number of AAQMS (WR069878 and those indicated in Table 5). Minimum phototoxic concentration in a yeast assay for a number of AAQMS, as per Ison et al.; Phototoxicity of Quinoline methanols and other drugs in mice and yeast; J. Invest. Dermatol. (52)193-198 (1969) were used to generate a three-dimensional pharmacophore model using the HypoGen algorithm of the […]® (Accelrys software Inc.) methodology as per Bhattacharjee et al.; A 3D QSAR pharmacophore model and quantum chemical structure—activity analysis of chloroquine(CQ)-resistance reversal; J. Chem Inf. Comput Sci. (42) 1212-1220 (2002), and Dow et al.; as discussed in Antimicrob Agents Chemother. (48)2624-2632 (2004), cited above, both Bhattacharjee et al. and Dow et al, incorporated herein, by reference. The structures of clinically used quinoline methanols were mapped onto the pharmacophores and estimated values for minimum phototoxic concentration were generated. The 3T3 neutral red uptake (NRU) phototoxicity test, conducted by MB Research Laboratories (Spinnerstown, Pa.), was used to identify quinoline methanols (WR069878 and those in Table 5) that have the potential to exert in vivo phototoxicity after systemic application. Briefly, the central 60 wells of two 96-well plates per AAQM were seeded with Balb/c 3T3 mouse fibroblast cells and maintained in culture for 24 hrs. These plates were then pre-incubated with a range of eight different concentrations of test compound (six wells per concentration) for one hour. Next, one plate was treated with a UVA dose of 5 J/cm2 by irradiating for 50 min at 1.7 mW/cm2, whereas the other plate remained non-treated and in the dark. Next, the treatment medium was replaced with culture medium and cell viability was determined after 24 hrs by measuring neutral red uptake for 3 hrs. Finally, the 3T3 NRU Phototox Prediction Software (version 2.0, ZEBET) was used to calculate EC50 values and Photo-Irritant Factors (PIF) for each compound. […]

[3] = tested on: FVO strain of P. falciparum; assay: Efficacy in P. falciparum-challenged Aotus monkeys; format: in vivo, Plasmodium falciparum in Aotus lemurinus lemurinus
Protocol: (§1) The P. berghei-mouse efficacy data were obtained from the WRAIR chemical information system (subcutaneous testing) or from recent tests conducted at AFRIMS, Thailand or at the University of Miami using a modified version of the Thompson test. Groups of five mice were inoculated through i.p. injection on day 0 (usually with 1×106 P. berghei-parasitized erythrocytes). The drugs in Table 1 were administered either subcutaneously or orally for three days (usually on days 3-5) at doses of 1.25-160 mg/kg in two to four fold increments. Cure was defined as survival until day 60 (subcutaneous dosing) or day 31 post-treatment (oral dosing). […] The minimum effective dose was the lowest dose level that cured at least one of five mice. The Aotus studies were performed according to Obaldia; Detection of Klebsiella pnuumoniae antibodies in Aotus l. lemurinus (Panamanian owl monkey) using an enzyme linked immunosorbent assay (ELIA) test; Lab Anim (25)133-141 (1991) and Obaldia et al., WR 238605, chloroquine, and their combinations as blood schizonticides against a chloroquine-resistant strain of Plasmodium vivax in Aotus monkeys; Am. J. Trop. Med. Hyg. (56)508-510 (1997), which are incorporated by reference, herein. Groups of two Aotus lemurinus 6 lemurinus of the karyotype VIII or IX (27) male and female monkeys with weights ranging from 742-970 g were inoculated with 5×10^6 parasites of either the FVO strain of P. falciparum or the AMRU1 strain of P. vivax. Both of these strains are chloroquine resistant. […] Monkeys were examined and thick Giemsa-stained blood smears were prepared and enumerated daily (17) to monitor the course of infection. […] In some instances, a high dose of the test drug was used to retreat monkeys instead of the mefloquine rescue. Monkeys are considered cured if they are parasite free 90 days post treatment. […] Plasma samples were taken from the monkeys in some studies for quantification of metabolites. Additional blood samples were taken as appropriate for complete blood counts and serum chemistry. Research was conducted in compliance with the Animal Welfare Act and other federal statutes and regulations relating to animals and experiments involving animals and adheres to principles stated in the Guide for the Care and Use of Laboratory Animals, NRC Publication, 1996 edition (34).

[4] = mouse, in vivo
P. falciparum TM91C235 = assay: In vitro antimalarial activity against P. falciparum TM91C235; format: cell-based, Plasmodium falciparum
Protocol: The in vitro activities of AAQMs against P. falciparum strains W2, D6, TM91C235 and TM90C2A were evaluated using the method of Desjardins et al. as modified by Milhous et al. W2 is chloroquine resistant and mefloquine sensitive, D6 is chloroquine sensitive but naturally less susceptible to mefloquine, TM91C235 is resistant to mefloquine, chloroquine and pyrimethamine as is TM90C2A, however this latter parasite is a two pfmdr1 copy strain. We routinely run mefloquine in this screen as a control to ensure assay validity.

[5] = tested on: Plasmodium falciparum malaria; conditions: P. falciparum malaria, South East Asia; WR030090: field trials; cited from earlier work
[6] = Aotus, 10 mg/kg/day oral x7
Protocol: as §1

| Activity against P. falciparum TM91C235 (IC50 in ng/ml) (P. falciparum TM91C235) [ng/mL] | TM91C235 IC90 (P. falciparum TM91C235; Table 2) [µg/mL] | Mean peak concentration [6] [ng/mL] | Plasma conc on day 1 (ng/ml) 2 h ([6]; day 1, 2 h) [ng/mL] | Plasma conc on day 1 (ng/ml) 24 h ([6]; day 1, 24 h) [ng/mL] | Plasma conc. on day 7 (ng/ml) 2 h ([6]; day 7, 2 h) [ng/mL] | Plasma conc. on day 7 (ng/ml) 24 h ([6]; day 7, 24 h) [ng/mL] | SMILES | Yeast minimum phototoxic concentration (yeast) [mg/ml^c] | Minimum phototoxic dose in mice [1] | Photo Irritant Factor (PIF) ([2]; UVA 5 J/cm2, potential to be phototoxic if PIF > 5.0) | Outcome in Aotus, earlier studies ([3]; 10 mg/kg/day x7, WRAIR archival data) | Outcome in Aotus ([3]; 10 mg/kg/day x7 oral, groups of two, Cure = parasite free 90 days, R = average day of recrudescence, Failure = rescued with mefloquine) | Phototoxicity in mice [4] | Photo Irritant Factor (PIF) [2] | Cure rate [5] |
| --- | --- | --- | --- | --- | --- | --- | --- | --- | --- | --- | --- | --- | --- | --- | --- |
| – | – | – | – | – | – | – | OC(c1cc(-c2ccccc2)nc2c(Cl)cc(Cl)cc12)C1CCCCN1 (stereo not drawn) [WR007930] | 31 | Minimum phototoxic dose is 7 mg/kg | 29.0 | – | – | – | – | – |
| 11 | 0.052 | 307 | 597 | 11 | 16 | 5.6 | CCCCN(CCCC)CC(O)c1cc(-c2ccc(Cl)c(Cl)c2)nc2c(Cl)cc(Cl)cc12 (stereo not drawn) [WR030090] | – | – | – | cleared but did not cure infections | Failure | are phototoxic^d | 105.7 | at least 88% |
